Test [1] is described as follows: yeast lifespan-shortening chemical project counter-assay, dose-response inhibition of growth under permissive conditions (AID 850).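 Further: growth read as optical density after one day of incubation.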 The following applies: Saccharomyces cerevisiae growth inhibition, permissive control, measured here: maximum growth inhibition, stronger effect = higher value.
In test [2] the test system is Saccharomyces cerevisiae growth inhibition, permissive control. Described as above.

The source made the active and inactive calls. How the calls were made is not given here. Where only a bound is given, the exact number is not on record here.

In the case of `C=C(C)COc1ccc(-c2[nH]ncc2Oc2ccccc2OC)c(O)c1`, in test [1] (at 1.563 µM), the inhibition was -1.35%. In addition, the IC50 in test [2] is > 100 µM (inactive).
Turning to `O=C(O)c1ccccc1Nc1ccc([N+](=O)[O-])cc1`, the inhibition in test [1] (at 50 µM) stood at 98%. Besides, the IC50 in test [2] was 14.6 µM.
As to `O=C(C1=C(O)/C(=C/c2ccc(O)cc2)CCC1)C(F)(F)F`, the inhibition in test [1] (at 0.195 µM) came to 7.72%. Further, the IC50 in test [2] was > 100 µM (inactive).
Turning to `C=CCSc1nnc2nc3c(nn12)c1cc(C)ccc1n3CC=C`, the inhibition in test [1] (at 25 µM) was found to be 16.6%. Also, the IC50 in test [2] is > 100 µM (inactive).
With `Cc1ccc(-n2cnc3cc(NCc4cccs4)ccc32)cc1`, the inhibition in test [1] (at 50 µM) was found to be 53.2%. Besides, in test [2], the IC50 was 45.8 µM.
As to `Cc1ccc(-c2nn3c(C)nnc3s2)cc1NC(=O)c1ccc(OC(C)C)cc1`, in test [1] (at 0.098 µM), the inhibition is 17.3%. Besides, the IC50 in test [2] was > 100 µM (inactive).
`Cc1cc2nc(C)n3c4ccccc4nc3n2n1`: the inhibition in test [1] (at 50 µM) was 63.4%. In addition, the 50% inhibitory concentration (IC50) in test [2] was 35.3 µM.
In the case of `O=C1c2ccccc2NC(c2ccc(-c3ccc(Br)cc3)o2)N1O` (stereo unspecified), the inhibition in test [1] (at 50 µM) amounted to 99%. In addition, in test [2], the IC50 was 18.9 µM.
Regarding `CCn1c(=O)c(C(=O)Nn2c(C)nc3ccccc3c2=O)c(O)c2ccccc21`, the inhibition in test [1] (at 25 µM) is 99%. The IC50 in test [2] was 13.4 µM.
`O=C(Nc1nc(-c2ccccn2)cs1)c1ncc(Cl)c(Cl)c1Cl`: in test [1] (at 12.5 µM), the inhibition stood at 13.1%. Moreover, the IC50 in test [2] was > 100 µM (inactive).
As to `O=C1NC(=S)N(c2ccccc2F)C(=O)/C1=C\c1cccs1`, the inhibition in test [1] (at 50 µM) came out at 91.4%. The IC50 in test [2] is 13.6 µM.
For the molecule `NC(N)=N/N=C/c1ccc(OCc2ccc(Cl)cc2Cl)cc1`, the inhibition in test [1] (at 50 µM) came to 101%. Moreover, the IC50 in test [2] is 28.1 µM.
Regarding `COc1ccc(-c2cc(C(=O)N3CCN(c4ncccn4)CC3)c3ccccc3n2)c(OC)c1`, the inhibition in test [1] (at 12.5 µM) came to 23.4%. The IC50 in test [2] is > 100 µM (inactive).
As to `Cc1ccc(Nc2cc(C)nn2-c2nc(C)cc(=O)[nH]2)cc1`, the inhibition in test [1] (at 6.25 µM) stood at 96.6%. For the same molecule, the concentration for half-maximal inhibition (IC50) in test [2] is 0.708 µM.
For `Cc1cccc(-c2nnc3sc(-c4ccccc4C)nn23)c1`, in test [1] (at 50 µM), the inhibition is 29.1%. For the same molecule, the IC50 in test [2] was > 100 µM (inactive).
Take `Oc1cccc2ccc(/C=C/c3cccs3)nc12`: the inhibition in test [1] (at 50 µM) was determined as 67.1%. Moreover, the 50% inhibitory concentration (IC50) in test [2] is 37.4 µM.
For `Cc1ccc(C(=O)OCn2ncc(Cl)c(Cl)c2=O)cc1`, in that order: 85.2% and 36.4 µM.
Take `Cc1ccc(S(=O)(=O)Nc2ccc(SC(F)F)cc2)c(C)c1`: the inhibition in test [1] (at 0.781 µM) is 21.4%. In test [2], the IC50 was > 100 µM (inactive).
Regarding `O=C(NNC(=S)NC(=O)C12CC3CC(CC(C3)C1)C2)c1ccncc1`, the inhibition in test [1] (at 50 µM) is 94.8%. Further, the IC50 in test [2] was 13.4 µM.
For `N/C(Cc1ccc(Cl)cc1)=N\OC(=O)c1ccccc1`, in that order: 98% and 29.8 µM.
`COc1ccccc1OCCCc1c(C)n[nH]c1C`: the inhibition in test [1] (at 50 µM) was determined as 100%. The concentration for half-maximal inhibition (IC50) in test [2] was 5.76 µM.
Regarding `S=C(NCc1ccc(Cl)cc1)NC12CC3CC(CC(C3)C1)C2`, in test [1] (at 0.195 µM), the inhibition worked out at 14.1%. For the same molecule, the IC50 in test [2] was > 100 µM (inactive).
For `CCc1cc(-c2n[nH]c(C)c2Oc2ccc(C(C)C)cc2)c(O)cc1O`, the inhibition in test [1] (at 50 µM) came to 75.6%. In addition, the IC50 in test [2] was 35 µM.
For `O=C(O)c1cc(-c2ccc(/C=N/Nc3ccc(Cl)cc3)o2)ccc1Cl`, in that order: 98.8% and 4.41 µM.
For `O=c1cc(-c2ccccc2)[nH]n1-c1nc2ccccc2[nH]1`, in that order: 97.3% and 13.3 µM.
For `Cc1noc2ncnc(Sc3ccccc3Cl)c12`, in that order: 69% and 39.5 µM.
`O=c1c(-c2ccc(Cl)cc2)[n+]([O-])c2ccccc2n1O`: the inhibition in test [1] (at 25 µM) stood at 99.8%. Also, the IC50 in test [2] was 7.82 µM.
For the molecule `O=C1c2ccccc2C(=O)c2c1cccc2N1CCOCC1`, the inhibition in test [1] (at 0.195 µM) was determined as 13.5%. Also, the IC50 in test [2] is > 100 µM (inactive).
With `CC(=O)NC(=S)c1c(N)n(Cc2ccccc2)c(=O)n(C)c1=O`, the inhibition in test [1] (at 3.125 µM) stood at 7.99%. Besides, the IC50 in test [2] is > 100 µM (inactive).
As for `N/C(Cc1ccc(Cl)cc1)=N\OC(=O)C1CCCCC1`, the inhibition in test [1] (at 50 µM) came to 98.8%. Further, the concentration for half-maximal inhibition (IC50) in test [2] was 15.8 µM.
`Nc1ccc(SC(F)(F)F)cc1C(=O)c1ccccc1`: in test [1] (at 0.391 µM), the inhibition is 14.9%. Also, in test [2], the IC50 is > 100 µM (inactive).
As to `Cc1c(C=O)c2ccccn2c1C(=O)c1ccncc1`, the inhibition in test [1] (at 50 µM) stood at 10.7%. Further, the IC50 in test [2] was > 100 µM (inactive).
For `Cc1ccccc1C(=O)O/N=C/c1c(N2CCOCC2)n(C)c2ccccc12`, the inhibition in test [1] (at 50 µM) is 57.1%. In test [2], the IC50 was 50.7 µM.

For orientation: inhibition means the change of the read-out against control, counted positive when it falls. In general, IC50 refers to the concentration that inhibits the measured activity by half.

These data come from PubChem BioAssay AID850 (SRMLSC, 2007).
